In PMC9303367, “Synthesis of Aminoethyl‐Substituted Piperidine Derivatives as σ1 Receptor Ligands with Antiproliferative Properties” (Chemmedchem, 2022):
Where two headings read alike, the source gives them in different places.

Tests used:
[1] = logD7.4 by micro shake flask method (n-octanol / MOPS buffer pH 7.4, MS); type: physicochemical; conditions: read-out: logD7.4 (exp., n=3)
Experimental: However, the penalty for increased hydrolytic stability and σ1 receptor affinity of tetrahydropyrans 2 and cyclohexanes 3 is an increased molecular lipophilicity. In Figure 1 the calculated clogP values of the σ1 ligands 1–3 and one designed piperidine 4 a are summarized. In order to confirm the predicted clogP values, the logD7.4 values of the σ1 ligands 1–4 a were also determined experimentally using the micro shake flask method.[39, 40]
In order to argue with reliable lipophilicity values, the logD7.4 values of key compounds were determined experimentally following our micro‐shake‐flask protocol.[39, 40] According to this method, each compound of interest was distributed between an n‐octanol layer and an aqueous MOPS buffer pH 7.4. Subsequently, the amount of compound in the buffer layer was determined by mass spectrometry.

σ1 receptor [2] = biological target: T1, σ1 receptor (Cavia porcellus, UniProt Q60492); conditions: cited from earlier work
T1 construct: The thawed membrane preparation of guinea pig brain cortex; tissue Harlan-Winkelmann, Borchen, Germany; host or cells: guinea pig brain (cortex) membrane homogenate

σ2 receptor [3] = biological target: T2, σ2 receptor (Rattus norvegicus, UniProt Q5U3Y7); conditions: lead compounds 1–3; read-out: σ2 affinity K i±SEM; cited from earlier work
T2 construct: The thawed rat liver membrane preparation; tissue Harlan-Winkelmann, Borchen, Germany; host or cells: rat liver membrane preparation
T2 sequence (Q5U3Y7 1-176): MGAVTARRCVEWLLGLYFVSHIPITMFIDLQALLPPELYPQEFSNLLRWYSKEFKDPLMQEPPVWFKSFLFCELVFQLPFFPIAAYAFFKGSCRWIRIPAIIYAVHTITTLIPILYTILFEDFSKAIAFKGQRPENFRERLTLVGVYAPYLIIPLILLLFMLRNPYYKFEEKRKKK

[4] = tested on: androgen negative human prostate cancer cells DU145; assay: DU145 cell growth inhibition, sulforhodamine B staining, 72 h; type: cell-based; conditions: 72 h incubation, n=3, read-out: cytotoxicity (DU145) IC 50
Experimental: In the assay, DU145 tumor cells were incubated in 96‐well plates for 24 h. Different concentrations of the test compounds were added and after incubation for additional 72 h, the amount of living cells was recorded by staining with Sulforhodamine B.[62] In Table 3 the activity of the prototypical σ1 antagonists NE‐100 and S1RA is included.
6. Growth inhibition of DU145 tumor cells
DU145 cells were purchased from ATCC and maintained in adherent conditions in RPMI 1640 medium (21875-034, Gibco®) supplemented with 2 % (S)-glutamine, 10 % fetal […]
Gibco®). For the proliferation assays, DU145 cells were seeded at a density of 2 x 10^3 cells/well in 96-well tissue culture plates. 24 h later, the cells were treated with the […]
Then, the cells were fixed with 10 % (w/v) trichloroacetic acid and stained with sulforhodamine B for 30 min. The excess of the dye was removed by washing repeatedly with 1 % (v/v) acetic acid and the protein-bound dye was solubilized with Tris base solution for optical density (OD) measurement at 510 nm with a microplate reader. Cell proliferation and viability were expressed as percentages relative to those of DMSO treated cells. The data represent the results from three independent experiments. Statistical analysis was done using T-test and Anova. Figure […]
and two reference σ1 receptor antagonists.

σ1 receptor [5] = conditions: read-out: σ1 affinity K i±SEM, cited from earlier work
σ1 receptor [6] = tested on: σ1 receptor; set-up: method as in PMID 21444132, PMID 21598296; conditions: mouse capsaicin assay; cited from earlier work
σ1 receptor [7] = biological target: T1, σ1 receptor; assay: σ1 receptor radioligand binding assay ([3H]-(+)-pentazocine, guinea pig brain homogenate); conditions: for Ki: guinea pig brain, [3H]-(+)-pentazocine, piperidines tested as cis/trans mixtures; for σ1 : σ2 selectivity: Ki(σ2)/Ki(σ1)
σ2 receptor [8] = biological target: T2, σ2 receptor; assay: σ2 receptor radioligand binding assay ([3H]DTG with excess (+)-pentazocine, rat liver membranes); conditions: for Ki: read-out: σ2 affinity K i±SEM (n=3), rat liver membranes, [3H]DTG + (+)-pentazocine; for inhibition at 1 µM: test compound concentration 1 μM
water solubility = type: physicochemical; conditions: at higher concentrations
[9] = tested on: human non-small cell lung cancer cell line A427; assay: A427 tumor cell proliferation (confluence) assay, IncuCyte S3 live cell imaging
Experimental: In particular the confluence and IC 50 values were determined.
Live Cell imaging using the IncuCyte® S3 Live Cell Analysis System
The measurement of the cell confluence and the determination of the IC50 values were
performed with the IncuCyte® S3 Live Cell Analysis System (Essen BioScience, Ltd.,
Royston, Hertfordshire, UK)
5.4. Preparation of 96-well plates
For the preparation of the 96-well plates for the Live Cell Imager, A427 cells from the flask
were detached and centrifuged. The pellet was resuspended in 20 mL of the medium
using the vortexer. 1 mL was used to determine the number of cells and the volume
required for 8,000-12,000 cells was calculated. This volume was then added to each well
Switzerland) and the well was filled up to a total volume of 150 µL with medium.
At a confluence of 30-40 % the test compounds were added. Dilutions of concentrations
of 200, 100, 40, 20, 10 and 4 µM were prepared in medium with 2 % DMSO. 50 µL of
each dilution were added to the wells, resulting in a final assay concentration of 50, 25,
10, 5, 2.5 and 1 µM, respectively. Each concentration was measured in triplicates on each
plate and on three different days.
5.5. Measurement of cell confluence
The cell confluence was measured using the IncuCyte® S3. For the scanning with the
at a 10-fold magnification. Four pictures were taken from each well every 2 h until the
growth curve of the cells reached a plateau (approx. 5 d). The mask for the analysis of
adjustment size of -1 pixel and an area filter of minimum 200 µm2. After the analysis, a
graph showing the development of the confluence over time was produced.
5.6. Competitive confluence assay
The plates were prepared as described above with the exception that the cells were grown
in 100 µL instead of 150 µL of medium. After the cell confluence reached 30-40 %, the
(final concentration: 10 µM).

[10] = lead compounds 1–3 (enantiomers), read-out: σ1 affinity K i±SEM
[11] = read-out: σ1 affinity K i±SEM (n=3)

T1 sequence (Q60492 whole entry): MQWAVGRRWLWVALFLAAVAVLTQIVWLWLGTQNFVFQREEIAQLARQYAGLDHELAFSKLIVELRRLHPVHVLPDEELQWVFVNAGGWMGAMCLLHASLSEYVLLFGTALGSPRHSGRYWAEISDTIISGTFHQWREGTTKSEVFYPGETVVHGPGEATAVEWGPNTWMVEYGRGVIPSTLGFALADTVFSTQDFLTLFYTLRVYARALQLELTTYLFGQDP

c1ccc(CNCCC2CCCC(c3ccccc3)O2)cc1 (stereo not drawn) [compound 2]
logD [1]: 2.52 ± 0.05
Ki (σ1 receptor [2]; [10]): 0.0016 ± 0.0002 µM
Ki (σ2 receptor [3]): 0.378 µM

c1ccc(CNCCC2CCCC(c3ccccc3)C2)cc1 (stereo not drawn) [compound 3]
logD [1]: 3.25 ± 0.02
Ki (σ1 receptor [2]; [10]): 0.00061 ± 0.0001 µM
σ1 : σ2 selectivity (σ1 receptor [2]; lead compounds 1–3): 80
Ki (σ2 receptor [3]): 0.049 ± 0.031 µM

Cc1cc(OCCN2CCOCC2)nn1-c1ccc2ccccc2c1 [S1RA, reference compound]
IC50 [4]: > 10 µM
Ki (σ1 receptor [5]; S1RA): 0.017 ± 0.007 µM

c1ccc(CNCCC2CCOC(c3ccccc3)O2)cc1 (stereo not drawn) [compound 1]
logD [1]: 1.36 ± 0.02
Ki (σ1 receptor [2]; 1,3-dioxane 1, read-out: σ1 affinity K i): 0.019 µM
Ki (σ1 receptor [2]; [10]): 0.006 ± 0.001 µM
Ki (σ2 receptor [3]): 4.2 µM
antiallodynic activity in vivo (σ1 receptor [6]): high antiallodynic activity

CCN1CC[C@H](CCNCCCc2ccccc2)C[C@@H]1c1ccccc1 [19b, cis‐N‐(2‐(1‐Ethyl‐2‐phenylpiperidin‐4‐yl)ethyl)‐3‐phenylpropan‐1‐amine]
Ki (σ1 receptor [7]; σ1 affinity K i±SEM (n=3)): 2.4 µM
preference for the σ2 receptor over the σ1 receptor (σ2 receptor [8]): 7 fold

c1ccc(CNCCC2CCNC(c3ccccc3)C2)cc1 (stereo not drawn) [4a, cis‐ and trans‐N‐Benzyl‐2‐(2‐phenylpiperidin‐4‐yl)ethan‐1‐amine]
Ki (σ1 receptor [7]; [11]): 0.165 µM
Ki (σ2 receptor [8]): 0.372 µM
logD [1]: -0.79 ± 0.07
water solubility (water solubility): good water solubility
IC50 ([9]; Homo sapiens, A-427, 120 h, read-out: Inhibition of cell confluency IC50 ± SD, A427 cells, last time point (approx. 5 d), n = 3): 18 µM
functional behaviour at σ1 receptor in A427 tumor cell proliferation assay ([9]; effect reduced by σ1 agonist (+)-pentazocine (10 μM)): σ1 receptor antagonist
IC50 ([9]; read-out: Inhibition of cell confluency IC50 ± SD, A427 cells, last time point (approx. 5 d), n = 3): 17 µM

CN(CCC1CCN(C)C(c2ccccc2)C1)Cc1ccccc1 (stereo not drawn) [21a, cis‐ and trans‐N‐Benzyl‐N‐methyl‐2‐(1‐methyl‐ 2‐phenylpiperidin‐4‐yl)ethan‐1‐amine]
σ1 : σ2 selectivity (σ1 receptor [7]): 4
Ki (σ1 receptor [7]; [11]): 0.019 ± 0.009 µM
Ki (σ1 receptor [7]; σ1 affinity K i±SEM (n=3)): < 0.027 µM
Ki (σ2 receptor [8]): 0.077 ± 0.005 µM
IC50 ([4]; Homo sapiens, DU-145): 5.5 µM

CN1CCC(CCNCC2CCCCC2)CC1c1ccccc1 (stereo not drawn) [20a, cis‐ and trans‐N‐(Cyclohexylmethyl)‐2‐(1‐methyl‐ 2‐phenylpiperidin‐4‐yl)ethan‐1‐amine]
σ1 : σ2 selectivity (σ1 receptor [7]): 18
Ki (σ1 receptor [7]; σ1 affinity K i±SEM (n=3)): 0.016 ± 0.005 µM
IC50 ([4]; Homo sapiens, DU-145): 4.9 µM

CCN1CCC(CCNCc2ccccc2)CC1c1ccccc1 (stereo not drawn) [18b, cis‐ and trans‐N‐Benzyl‐2‐(1‐ethyl‐2‐phenyl‐piperidin‐ 4‐yl)ethan‐1‐amine]
σ1 : σ2 selectivity (σ1 receptor [7]): 1
Ki (σ1 receptor [7]; σ1 affinity K i±SEM (n=3)): 0.129 ± 0.038 µM

CN1CCC(CCN2CCN(c3ccccc3)CC2)CC1c1ccccc1 (stereo not drawn) [22a, cis‐ and trans‐1‐(2‐(1‐Methyl‐2‐phenyl‐ piperidin‐4‐yl)ethyl)‐4‐phenylpiperazine]
σ1 : σ2 selectivity (σ1 receptor [7]): 59
Ki (σ1 receptor [7]; [11]): 0.027 ± 0.011 µM
Ki (σ1 receptor [7]; σ1 affinity K i±SEM (n=3)): < 0.027 µM
Ki (σ2 receptor [8]): 1.6 µM
IC50 ([4]; Homo sapiens, DU-145): 4 µM

c1ccc(CCCNCCC2CCNC(c3ccccc3)C2)cc1 (stereo not drawn) [4b, cis‐ and trans‐N‐(3‐Phenylpropyl)‐2‐(2‐phenyl‐piperidin‐ 4‐yl)ethan‐1‐amine]
Ki (σ1 receptor [7]; σ1 affinity K i±SEM (n=3)): 0.849 µM
inhibition at 1 µM (σ2 receptor [8]): 0%

CN1CCC(CCNCc2ccccc2)CC1c1ccccc1 (stereo not drawn) [18a, cis‐ and trans‐N‐Benzyl‐2‐(1‐methyl‐2‐phenyl‐piperidin‐ 4‐yl)ethan‐1‐amine]
σ1 : σ2 selectivity (σ1 receptor [7]): 61
Ki (σ1 receptor [7]; [11]): 0.0079 ± 0.0002 µM
logD [1]: 0.52 ± 0.01

Cc1ccc(S(=O)(=O)N2CCC(CCNCCCc3ccccc3)CC2c2ccccc2)cc1 (stereo not drawn) [13b, cis‐ and trans‐N‐(3‐Phenylpropyl)‐2‐(2‐phenyl‐1‐tosylpiperidin‐4‐yl)ethan‐1‐amine]
σ1 : σ2 selectivity (σ1 receptor [7]): 2
Ki (σ1 receptor [7]; σ1 affinity K i±SEM (n=3)): 0.291 ± 0.139 µM

CC(C)=CCN1CC[C@]2(C)c3cc(O)ccc3C[C@H]1[C@H]2C [(+)‐pentazocine, reference compound]
Inhibition of cell confluency IC50 ± SD ([9]; A427 cells, last time point (approx. 5 d), n = 3): no effect

CCCN(CCC)CCc1ccc(OC)c(OCCc2ccccc2)c1 [NE‐100, reference compound]
IC50 [4]: > 10 µM
Ki (σ1 receptor [5]; NE-100): 0.0013 µM

CN1CC[C@H](CCNCCCc2ccccc2)C[C@@H]1c1ccccc1 [19a, cis‐N‐(2‐(1‐Methyl‐2‐phenylpiperidin‐4‐yl)‐ethyl)‐3‐ phenylpropan‐1‐amine]
σ1 : σ2 selectivity (σ1 receptor [7]): >20
Ki (σ1 receptor [7]; σ1 affinity K i±SEM (n=3)): 0.05 ± 0.017 µM
inhibition at 1 µM (σ2 receptor [8]): 0%

Cc1ccc(S(=O)(=O)N2CCC(CCNCc3ccccc3)CC2c2ccccc2)cc1 (stereo not drawn) [13a, cis‐ and trans‐N‐Benzyl‐2‐(2‐phenyl‐1‐tosyl‐piperidin‐ 4‐yl)ethan‐1‐amine]
σ1 : σ2 selectivity (σ1 receptor [7]): 13
Ki (σ1 receptor [7]; σ1 affinity K i±SEM (n=3)): 0.057 ± 0.021 µM
melting point: 79 °C
